The target in the assay is T1, PD brain-derived alpha-synuclein aggregates (Homo sapiens, UniProt P37840).
T1 construct: from tissue; host or cells: human PD donor brain tissue, sarkosyl-insoluble fraction
The assay is described as follows: Micro-radiobinding competition assay for the determination of binding affinity. The note with it: for Ki: compound concentrations 0.05 nM to 2 μM, nonlinear regression, one site model. How it is done: The procedure was adapted from the protocol described in Spillantini et al., 1998. Frozen tissue blocks from PD donors were thawed on ice and homogenized using a glass dounce homogenizer. The homogenate was then centrifuged at 11,000×g (12,700 RPM) in an ultracentrifuge (Beckman, XL100K) for 20 minutes at 4° C. using a pre-cooled 70.1 rotor (Beckman, 342184). Pellets were resuspended in extraction buffer [10 mM Tris —HCl PH 7.4, 10% sucrose, 0.85 mM NaCl, 1% protease inhibitor (Calbiochem 539131), 1 mM EGTA, 1% phosphatase inhibitor (Sigma P5726 and P0044)] and centrifuged at 15,000×g (14,800 RPM, a 70.1 Ti rotor) for 20 minutes at 4° C. Pellets were discarded and sarkosyl (20% stock solution, Sigma L7414) was added to the supernatants to a final concentration of 1% at room temperature for one hour. This solution was then centrifuged at 100,000×g (38,000 RPM, 70.1 Ti rotor) for one hour at 4° C. Pellets containing enriched alpha-synuclein aggregates were resuspended in PBS and stored at −80° C. until use.
PD brain-derived alpha-synuclein aggregates were spotted onto microarray slides. The slides were incubated with tritiated reference alpha-synuclein ligand at 6 nM, 20 nM or 30 nM and the example compounds (non-radiolabelled) at 1 μM and 100 nM. In some cases, the non-radiolabelled example compounds were further assessed for a range of different concentrations, varying from 0.05 nM to 2 μM. After incubation, slides were washed and scanned by a real-time autoradiography system (BeaQuant, ai4R). Quantification of the signal was performed by using the Beamage image analysis software (ai4R). Non-specific signal was determined with an excess of non-radiolabelled reference alpha-synuclein ligand (2 μM) and specific binding was calculated by subtracting the non-specific signal from the total signal. Competition was calculated as percent, where 0% was defined as the specific binding in the presence of vehicle and 100% as the values obtained in the presence of excess of the non-radiolabelled reference alpha-synuclein ligand. Ki values were calculated in GraphPad Prism7 by applying a nonlinear regression curve fit using a one site, specific binding model. All measurements were performed with at least two technical replicates. For compounds tested in more than one experiment, the mean of the replicates or Ki values in independent experiments is reported.
Results: Example compounds were assessed for their potency to compete with the binding of a tritiated reference alpha-synuclein ligand to PD patient brain-derived alpha-synuclein aggregates. Results of the micro-radiobinding competition assay for the example compounds tested are shown in Table 2 as: % competition at 1 μM and 100 nM.

Where [1] appears, read: 100 nM non-radiolabelled example compound, competition over tritiated reference alpha-synuclein ligand (6 nM, 20 nM or 30 nM).
Where [2] appears, read: 1 μM non-radiolabelled example compound, competition over tritiated reference alpha-synuclein ligand (6 nM, 20 nM or 30 nM).

Where a name gives a salt, the structure may show the parent alone.

As to `O=C1c2nn(-c3ccc(N4CC[C@H](F)C4)nc3)cc2CN1c1cncs1` [Example 11, 2-{6-[(3S)-3-fluoropyrrolidin-1-yl]pyridin-3-yl}-5-(1,3-thiazol-5-yl)-2H,4H,5H,6H-pyrrolo[3,4-c]pyrazol-6-one], the inhibition – broadly, the drop in the measured response relative to a control, in per cent – at 0.1 µM under setting [1] is 41%. Also, the inhibition at 1 µM under setting [2] is 90%.
For the compound `O=C1c2nn(-c3ccc(OCCF)nc3)cc2CN1c1cccnc1` [Example 17, 2-(6-(2-fluoroethoxy)pyridin-3-yl)-5-(pyridin-3-yl)-4,5-dihydropyrrolo[3,4-c]pyrazol-6 (2H)-one], the affinity corresponds to a Ki of 214 nM. Further, under setting [1], the inhibition at 0.1 µM is 31%. Also, the inhibition at 1 µM under setting [2] turned out to be 63%.
As to `Cc1ncc(N2Cc3cn(-c4ccc(N5CC[C@@H](F)C5)nc4)nc3C2=O)s1` [Example 15, (R)-2-(6-(3-fluoropyrrolidin-1-yl)pyridin-3-yl)-5-(2-methylthiazol-5-yl)-4,5-dihydropyrrolo[3,4-c]pyrazol-6(2H)-one], the inhibition at 0.1 µM under setting [1] turned out to be 71%. Besides, the inhibition at 1 µM under setting [2] came out at 92%.
Consider `O=C1c2nn(-c3ccc(N4CC[C@@H](F)C4)nc3)nc2CN1c1cccnc1` [Example 10, 2-{6-[(3R)-3-fluoropyrrolidin-1-yl]pyridin-3-yl}-5-(pyridin-3-yl)-2H,4H,5H,6H-pyrrolo[3,4-d][1,2,3]triazol-4-one], for which the affinity, expressed as Ki, was 30 nM. In addition, the inhibition at 0.1 µM under setting [1] is 74%. Also, the inhibition at 1 µM under setting [2] is 97%.
Regarding `COc1cncc(N2Cc3cn(-c4ccc(N5CC[C@H](F)C5)nc4)nc3C2=O)c1` [Example 6, 2-{6-[(3S)-3-fluoropyrrolidin-1-yl]pyridin-3-yl}-5-(5-methoxypyridin-3-yl)-2H,4H,5H,6H-pyrrolo[3,4-c]pyrazol-6-one], the inhibition at 0.1 µM under setting [1] came out at 26%. For the same compound, under setting [2], the inhibition at 1 µM is 60%.
For the compound `O=C1c2nn(-c3ccc(N4CC[C@@H](F)C4)nc3)cc2CN1c1cccnc1` [Example 1, 2-{6-[(3R)-3-fluoropyrrolidin-1-yl]pyridin-3-yl}-5-(pyridin-3-yl)-2H,4H,5H,6H-pyrrolo[3,4-c]pyrazol-6-one], the Ki – broadly, a measure of affinity in units of concentration, obtained from inhibition or displacement – amounted to 84 nM. Also, under setting [1], the inhibition at 0.1 µM worked out at 58%. Further, the inhibition at 1 µM under setting [2] was 86%.
For `Cn1cc(N2Cc3cn(-c4ccc(N5CC[C@@H](F)C5)nc4)nc3C2=O)cn1` [Example 5, 2-{6-[(3R)-3-fluoropyrrolidin-1-yl]pyridin-3-yl}-5-(1-methyl-1H-pyrazol-4-yl)-2H,4H,5H,6H-pyrrolo[3,4-c]pyrazol-6-one], the inhibition at 0.1 µM under setting [1] was 74%. In addition, the inhibition at 1 µM under setting [2] worked out at 101%.
The like results for `Cc1ncc(N2Cc3cn(-c4ccc(OCCF)nc4)nc3C2=O)s1` [Example 20, 2-(6-(2-fluoroethoxy)pyridin-3-yl)-5-(2-methylthiazol-5-yl)-4,5-dihydro-pyrrolo[3,4-c]pyrazol-6(2H)-one] were, in that order, 55% and 86%.
`Cn1cc(N2Cc3cn(-c4ccc(OCCF)nc4)nc3C2=O)cn1` [Example 18, 2-(6-(2-fluoroethoxy)pyridin-3-yl)-5-(1-methyl-1H-pyrazol-4-yl)-4,5-dihydropyrrolo[3,4-c]pyrazol-6(2H)-one] returned a Ki of 78 nM. Also, the inhibition at 0.1 µM under setting [1] was determined as 54%. Besides, the inhibition at 1 µM under setting [2] was 81%.
`Cc1ccc(N2Cc3cn(-c4ccc(N5CC[C@@H](F)C5)nc4)nc3C2=O)cn1` [Example 8, 2-{6-[(3R)-3-fluoropyrrolidin-1-yl]pyridin-3-yl}-5-(6-methylpyridin-3-yl)-2H,4H,5H,6H-pyrrolo[3,4-c]pyrazol-6-one]: the Ki came out at 226 nM. For the same compound, the inhibition at 0.1 µM under setting [1] is 37%. Further, the inhibition at 1 µM under setting [2] was determined as 71%.
For `O=C1c2nn(-c3ccc(OCCF)nc3)cc2CN1c1cncs1` [Example 19, 2-(6-(2-fluoroethoxy)pyridin-3-yl)-5-(thiazol-5-yl)-4,5-dihydropyrrolo [3,4-c]pyrazol-6(2H)-one], the affinity corresponds to a Ki of 86 nM. Under setting [1], the inhibition at 0.1 µM amounted to 46%. Also, the inhibition at 1 µM under setting [2] turned out to be 78%.
Regarding `COc1cncc(N2Cc3cn(-c4ccc(N5CC[C@@H](F)C5)nc4)nc3C2=O)c1` [Example 7, 2-{6-[(3R)-3-fluoropyrrolidin-1-yl]pyridin-3-yl}-5-(5-methoxypyridin-3-yl)-2H,4H,5H,6H-pyrrolo[3,4-c]pyrazol-6-one], the inhibition at 0.1 µM under setting [1] is 10%. The inhibition at 1 µM under setting [2] is 52%.
In turn, `Cc1ncc(N2Cc3cn(-c4ccc(N5CC[C@H](F)C5)nc4)nc3C2=O)s1` [Example 16, (S)-2-(6-(3-fluoropyrrolidin-1-yl)pyridin-3-yl)-5-(2-methylthiazol-5-yl)-4,5-dihydropyrrolo[3,4-c]pyrazol-6(2H)-one] showed a Ki of 40 nM. In addition, the inhibition at 0.1 µM under setting [1] came to 69%. Moreover, the inhibition at 1 µM under setting [2] amounted to 90%.
As for `Cc1ccc(N2Cc3cn(-c4ccc(N5CCC(F)C5)nc4)nc3C2=O)cn1` (stereo in doubt) [Example 13, 2-{6-[(3S)-3-fluoropyrrolidin-1-yl]pyridin-3-yl}-5-(6-methylpyridin-3-yl)-2H,4H,5H,6H-pyrrolo[3,4-c]pyrazol-6-one hydrochloride], under setting [1], the “Micro-radiobinding competition assay Competition at 100 nM (%)” value amounted to 37%. The “Micro-radiobinding competition assay Competition at 1 μM (%)” value (1 μM non-radiolabelled example compound, competition over tritiated reference alpha-synuclein ligand (6 nM, 20 nM or 30 nM), hydrochloride) came out at 87%.
In turn, `O=C1c2nn(-c3ccc(N4CC[C@@H](F)C4)nc3)cc2CN1c1cncs1` [Example 12, 2-{6-[(3R)-3-fluoropyrrolidin-1-yl]pyridin-3-yl}-5-(1,3-thiazol-5-yl)-2H,4H,5H,6H-pyrrolo[3,4-c]pyrazol-6-one] gave a Ki of 52 nM. Under setting [1], the inhibition at 0.1 µM came out at 64%. Under setting [2], the inhibition at 1 µM amounted to 94%.
The corresponding values for `O=C1c2nn(-c3ccc(N4CC[C@H](F)C4)nc3)cc2CN1c1cccnc1` [Example 2, 2-{6-[(3S)-3-fluoropyrrolidin-1-yl]pyridin-3-yl}-5-(pyridin-3-yl)-2H,4H,5H,6H-pyrrolo[3,4-c]pyrazol-6-one] are 115 nM, 34% and 80%.
`Cn1cc(N2Cc3cn(-c4ccc(N5CC[C@H](F)C5)nc4)nc3C2=O)cn1` [Example 4, 2-{6-[(3S)-3-fluoropyrrolidin-1-yl]pyridin-3-yl}-5-(1-methyl-1H-pyrazol-4-yl)-2H,4H,5H,6H-pyrrolo[3,4-c]pyrazol-6-one]: the inhibition at 0.1 µM under setting [1] came out at 28%. Under setting [2], the inhibition at 1 µM stood at 75%.
For `Cn1cc(N2Cc3cn(-c4ccc(N5CC(F)C5)nc4)nc3C2=O)cn1` [Example 3, 2-(6-(3-fluoroazetidin-1-yl)pyridin-3-yl)-5-(1-methyl-1H-pyrazol-4-yl)-4,5-dihydropyrrolo[3,4-c]pyrazol-6(2H)-one], the Ki was determined as 54 nM. In addition, under setting [1], the inhibition at 0.1 µM worked out at 38%. Besides, the inhibition at 1 µM under setting [2] was found to be 89%.
Take `Cn1cc(N2Cc3cn(-c4ccc(N5CCCC(F)CC5)nc4)nc3C2=O)cn1` (centres unmarked) [Example 14, 2-(6-(4-fluoroazepan-1-yl)pyridin-3-yl)-5-(1-methyl-1H-pyrazol-4-yl)-4,5-dihydropyrrolo[3,4-c]pyrazol-6(2H)-one hydrochloride]: the inhibition at 0.1 µM under setting [1] was 0%. Besides, under setting [2], the inhibition at 1 µM was found to be 66%.
Turning to `Cc1ccc(N2Cc3cn(-c4ccc(N5CC[C@H](F)C5)nc4)nc3C2=O)cn1` [Example 9, 2-{6-[(3S)-3-fluoropyrrolidin-1-yl]pyridin-3-yl}-5-(6-methylpyridin-3-yl)-2H,4H,5H,6H-pyrrolo[3,4-c]pyrazol-6-one], under setting [1], the inhibition at 0.1 µM was 37%. Moreover, the inhibition at 1 µM under setting [2] was 87%.
